Source: patent US12043599B2, “Herbicidal compounds” (SYNGENTA PARTICIPATIONS AG, priority 2018, dated 2024)

Legend:
Format in all cases: in vivo
Conditions in all cases: 250 g/h, evaluated after 13 days
[1] = tested on: Avena fatua (AVEFA); assay: Post-emergence herbicidal glasshouse test, percentage damage
Procedure, shortened: (§1)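 Percentage damage, read 13 days after treatment and banded into five classes (1=0-19% up to 5=80-100%). Plants in pots of standard soil received 250 g/h as a spray from acetone/water (50:50) containing 0.5% Tween 20. Application was one day (pre-emergence) or eight days (post-emergence) after sowing.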

[2] = tested on: Echinochloa crus-galli (ECHCG); assay: as above
Procedure, shortened: as §1

[3] = tested on: Lolium perenne (LOLPE); assay: as above
Procedure, shortened: as §1

[4] = tested on: Alopecurus myosuroides (ALOMY); assay: as above
Procedure, shortened: as §1

[5] = tested on: Setaria faberi (SETFA); assay: as above
Procedure, shortened: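 Wheat, barley and Setaria faberi were sprayed post-emergence after 8 days' growth (24/16 °C, 14 h light, 65% humidity) with compound in acetone/water (50:50) containing 0.5% Tween 20, at the indicated rates. On wheat, compounds were also applied with cloquintocet-mexyl at 50 g/ha. Damage was scored after 13 days on a five-point scale (5=80-100% to 1=0-19%).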

[6] = tested on: Avena fatua (AVEFA); assay: Pre-emergence herbicidal glasshouse test, percentage damage
Procedure, shortened: as §1

[7] = tested on: Setaria faberi (SETFA); assay: as above
Procedure, shortened: as §1

[8] = tested on: Echinochloa crus-galli (ECHCG); assay: as above
Procedure, shortened: as §1

[9] = tested on: Lolium perenne (LOLPE); assay: as above
Procedure, shortened: as §1

[10] = tested on: Alopecurus myosuroides (ALOMY); assay: as above
Procedure, shortened: as §1

CC#Cc1cc(C)c(C2C(=O)CC3(CCN(C(=O)NC(=O)c4ccc(F)cn4)CC3)CC2=O)c(C)c1 [Compound A157]
5 (5=80-100%): AVEFA POST percentage damage (five point scale) [1] | ECHCG POST percentage damage (five point scale) [2] | LOLPE POST percentage damage (five point scale) [3] | ALOMY POST percentage damage (five point scale) [4] | SETFA POST percentage damage (five point scale) [5] | SETFA PRE percentage damage (five point scale) [7] | ECHCG PRE percentage damage (five point scale) [8] | LOLPE PRE percentage damage (five point scale) [9]
2 (2=20-39%): AVEFA PRE percentage damage (five point scale) [6]
3 (3=40-59%): ALOMY PRE percentage damage (five point scale) [10]

CC#Cc1cc(C)c(C2C(=O)CC3(CCN(C(=O)Cc4ccncc4)CC3)CC2=O)c(C)c1 [Compound A100]
5 (5=80-100%): AVEFA POST percentage damage (five point scale) [1] | ECHCG POST percentage damage (five point scale) [2] | LOLPE POST percentage damage (five point scale) [3] | SETFA POST percentage damage (five point scale) [5] | SETFA PRE percentage damage (five point scale) [7] | ECHCG PRE percentage damage (five point scale) [8] | LOLPE PRE percentage damage (five point scale) [9]
4 (4=60-79%): ALOMY POST percentage damage (five point scale) [4]
3 (3=40-59%): AVEFA PRE percentage damage (five point scale) [6] | ALOMY PRE percentage damage (five point scale) [10]

CC#Cc1cc(C)c(C2C(=O)CC3(CCN(C(=O)N(C)C(C)=O)CC3)CC2=O)c(C)c1 [Compound A86]
5 (5=80-100%): AVEFA POST percentage damage (five point scale) [1] | ECHCG POST percentage damage (five point scale) [2] | LOLPE POST percentage damage (five point scale) [3] | ALOMY POST percentage damage (five point scale) [4] | SETFA POST percentage damage (five point scale) [5] | AVEFA PRE percentage damage (five point scale) [6] | SETFA PRE percentage damage (five point scale) [7] | ECHCG PRE percentage damage (five point scale) [8] | LOLPE PRE percentage damage (five point scale) [9] | ALOMY PRE percentage damage (five point scale) [10]

CC#Cc1cc(C)c(C2C(=O)CC3(CCN(S(=O)(=O)CC)CC3)CC2=O)c(OC)c1 [Compound A72]
5 (5=80-100%): AVEFA POST percentage damage (five point scale) [1] | ECHCG POST percentage damage (five point scale) [2] | LOLPE POST percentage damage (five point scale) [3] | ALOMY POST percentage damage (five point scale) [4] | SETFA POST percentage damage (five point scale) [5] | AVEFA PRE percentage damage (five point scale) [6] | SETFA PRE percentage damage (five point scale) [7] | ECHCG PRE percentage damage (five point scale) [8] | LOLPE PRE percentage damage (five point scale) [9] | ALOMY PRE percentage damage (five point scale) [10]

CC#Cc1cc(C)c(C2C(=O)CC3(CCN(C(=O)NC(=O)c4ccc(C#N)cn4)CC3)CC2=O)c(C)c1 [Compound A160]
2 (2=20-39%): ALOMY PRE percentage damage (five point scale) [10]
5 (5=80-100%): AVEFA POST percentage damage (five point scale) [1] | LOLPE POST percentage damage (five point scale) [3] | SETFA POST percentage damage (five point scale) [5] | SETFA PRE percentage damage (five point scale) [7]
3 (3=40-59%): LOLPE PRE percentage damage (five point scale) [9]
4 (4=60-79%): ECHCG POST percentage damage (five point scale) [2] | ALOMY POST percentage damage (five point scale) [4] | AVEFA PRE percentage damage (five point scale) [6] | ECHCG PRE percentage damage (five point scale) [8]

CC#Cc1cc(C)c(C2=C(OC(C)=O)CC3(CCN(C(=O)C4CC4)CC3)CC2=O)c(C)c1 [Compound P29]
5 (5=80-100%): AVEFA POST percentage damage (five point scale) [1] | ECHCG POST percentage damage (five point scale) [2] | LOLPE POST percentage damage (five point scale) [3] | ALOMY POST percentage damage (five point scale) [4] | SETFA POST percentage damage (five point scale) [5] | AVEFA PRE percentage damage (five point scale) [6] | SETFA PRE percentage damage (five point scale) [7] | ECHCG PRE percentage damage (five point scale) [8] | LOLPE PRE percentage damage (five point scale) [9] | ALOMY PRE percentage damage (five point scale) [10]

CC#Cc1cc(C)c(C2C(=O)CC3(CCN(C(=O)c4ccccc4)CC3)CC2=O)c(OC)c1 [Compound A73]
5 (5=80-100%): AVEFA POST percentage damage (five point scale) [1] | ECHCG POST percentage damage (five point scale) [2] | LOLPE POST percentage damage (five point scale) [3] | ALOMY POST percentage damage (five point scale) [4] | SETFA POST percentage damage (five point scale) [5] | AVEFA PRE percentage damage (five point scale) [6] | SETFA PRE percentage damage (five point scale) [7] | ECHCG PRE percentage damage (five point scale) [8] | LOLPE PRE percentage damage (five point scale) [9] | ALOMY PRE percentage damage (five point scale) [10]

CC#Cc1cc(C)c(C2C(=O)CC3(CCN(C(=O)NC(=O)c4cccnc4)CC3)CC2=O)c(C)c1 [Compound A145]
3 (3=40-59%): ALOMY PRE percentage damage (five point scale) [10]
2 (2=20-39%): AVEFA PRE percentage damage (five point scale) [6]
4 (4=60-79%): LOLPE PRE percentage damage (five point scale) [9]
5 (5=80-100%): AVEFA POST percentage damage (five point scale) [1] | ECHCG POST percentage damage (five point scale) [2] | LOLPE POST percentage damage (five point scale) [3] | ALOMY POST percentage damage (five point scale) [4] | SETFA POST percentage damage (five point scale) [5] | SETFA PRE percentage damage (five point scale) [7] | ECHCG PRE percentage damage (five point scale) [8]

CC#Cc1cc(C)c(C2C(=O)CC3(CCN(C(=O)CCn4cccn4)CC3)CC2=O)c(C)c1 [Compound A195]
5 (5=80-100%): AVEFA POST percentage damage (five point scale) [1] | ECHCG POST percentage damage (five point scale) [2] | LOLPE POST percentage damage (five point scale) [3] | ALOMY POST percentage damage (five point scale) [4] | SETFA POST percentage damage (five point scale) [5] | AVEFA PRE percentage damage (five point scale) [6] | SETFA PRE percentage damage (five point scale) [7] | LOLPE PRE percentage damage (five point scale) [9]
2 (2=20-39%): ECHCG PRE percentage damage (five point scale) [8]
4 (4=60-79%): ALOMY PRE percentage damage (five point scale) [10]

CC#Cc1cc(C)c(C2=C(OC(=O)C(C)(C)C)CC3(CCN(C(=O)N(C)C(=O)C(C)(C)C)CC3)CC2=O)c(C)c1 [Compound P54]
4 (4=60-79%): AVEFA POST percentage damage (five point scale) [1] | AVEFA PRE percentage damage (five point scale) [6] | ALOMY PRE percentage damage (five point scale) [10]
5 (5=80-100%): ECHCG POST percentage damage (five point scale) [2] | LOLPE POST percentage damage (five point scale) [3] | ALOMY POST percentage damage (five point scale) [4] | SETFA POST percentage damage (five point scale) [5] | SETFA PRE percentage damage (five point scale) [7] | ECHCG PRE percentage damage (five point scale) [8] | LOLPE PRE percentage damage (five point scale) [9]

CC#Cc1cc(C)c(C2C(=O)CC3(CCN(C(=O)c4ccccc4)CC3)CC2=O)c(C)c1 [Compound A7]
5 (5=80-100%): AVEFA POST percentage damage (five point scale) [1] | ECHCG POST percentage damage (five point scale) [2] | LOLPE POST percentage damage (five point scale) [3] | ALOMY POST percentage damage (five point scale) [4] | SETFA POST percentage damage (five point scale) [5] | AVEFA PRE percentage damage (five point scale) [6] | SETFA PRE percentage damage (five point scale) [7] | ECHCG PRE percentage damage (five point scale) [8] | LOLPE PRE percentage damage (five point scale) [9] | ALOMY PRE percentage damage (five point scale) [10]

CC#Cc1cc(C)c(C2C(=O)CC3(CCN(C(=O)NC(=O)c4cccc(F)n4)CC3)CC2=O)c(C)c1 [Compound A159]
5 (5=80-100%): AVEFA POST percentage damage (five point scale) [1] | ECHCG POST percentage damage (five point scale) [2] | LOLPE POST percentage damage (five point scale) [3] | ALOMY POST percentage damage (five point scale) [4] | SETFA POST percentage damage (five point scale) [5] | AVEFA PRE percentage damage (five point scale) [6] | SETFA PRE percentage damage (five point scale) [7] | ECHCG PRE percentage damage (five point scale) [8] | LOLPE PRE percentage damage (five point scale) [9] | ALOMY PRE percentage damage (five point scale) [10]

CC#Cc1cc(C)c(C2C(=O)CC3(CCN([S+]([O-])C(F)F)CC3)CC2=O)c(C)c1 (centres unmarked) [Compound A81]
5 (5=80-100%): AVEFA POST percentage damage (five point scale) [1] | ECHCG POST percentage damage (five point scale) [2] | LOLPE POST percentage damage (five point scale) [3] | ALOMY POST percentage damage (five point scale) [4] | SETFA POST percentage damage (five point scale) [5] | AVEFA PRE percentage damage (five point scale) [6] | SETFA PRE percentage damage (five point scale) [7] | ECHCG PRE percentage damage (five point scale) [8] | LOLPE PRE percentage damage (five point scale) [9] | ALOMY PRE percentage damage (five point scale) [10]

CC#Cc1cc(C)c(C2C(=O)CC3(CCN(C(=O)[C@H]4COCCO4)CC3)CC2=O)c(C)c1 [Compound A173]
5 (5=80-100%): AVEFA POST percentage damage (five point scale) [1] | ECHCG POST percentage damage (five point scale) [2] | LOLPE POST percentage damage (five point scale) [3] | ALOMY POST percentage damage (five point scale) [4] | SETFA POST percentage damage (five point scale) [5] | AVEFA PRE percentage damage (five point scale) [6] | SETFA PRE percentage damage (five point scale) [7] | ECHCG PRE percentage damage (five point scale) [8] | LOLPE PRE percentage damage (five point scale) [9] | ALOMY PRE percentage damage (five point scale) [10]
